Reference: patent publication EP0019589A1, “Tripeptide derivatives and their use in a process for determining enzymes” (Pentapharm A.G., priority 1979, dated 1980)
Non-standard residues stand in square brackets, D forms with d. Residues, ends and D or L forms follow the SMILES beside them. *: point of attachment. dCha = N[C@H](CC1CCCCC1)C(=O)O; dChg = N[C@@H](C(=O)O)C1CCCCC1; dPhg = N[C@@H](C(=O)O)c1ccccc1; pNA = O=[N+]([O-])c1ccc(N*)cc1; Chg = N[C@H](C(=O)O)C1CCCCC1; Phg = N[C@H](C(=O)O)c1ccccc1; Pip = O=C(O)[C@@H]1CCCCN1; dPip = O=C(O)[C@H]1CCCCN1; Nle = CCCC[C@H](N)C(=O)O; Nva = CCC[C@H](N)C(=O)O

Tests used:
Format in all cases: biochemical
Humanthrombin = target: T1, Humanthrombin (Homo sapiens, UniProt P00734); experiment: Cleavage of chromogenic substrate by human NIH thrombin; settings: 1 NIH-Einheit human thrombin, per min; Substratkonzentration 2 x 10^-4 molar
T1 construct: Humanplasmin und hu-manem NIH-Thrombin
Method in brief: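 Thrombin hydrolysis of chromogenic p-nitroanilide substrate read spectrophotometrically at 405 nm; fluorogenic naphthylamine, methylcoumarylamine or di(methoxycarbonyl)phenylamine substrates read continuously by fluorescence emission at 400-470 nm. Activity taken as product formed per unit time; 1 µmol product/min defined as 1 enzyme unit for a given substrate.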

Urinkallikrein = target: T2, Urinkallikrein (Homo sapiens, UniProt P06870); experiment: Cleavage of chromogenic substrate by urinary kallikrein in human urine; settings: 1 ml human urine (pooled morning urine of healthy persons), per min; Substratkonzentration 2 x 10^-4 molar
T2 construct: 1 ml Urin und 1 ml TRIS-Imidazol-Puffer mit pH 7,9; from tissue; host or cells: human urine

[1] = target: T3, Submandibularis-Kallikrein (Homo sapiens, UniProt P06870); experiment: Cleavage of chromogenic substrate by submandibular (glandular) kallikrein in human sputum; settings: 1 ml human sputum, per min; Substratkonzentration 2 x 10^-4 molar
T3 construct: Man mischt 0,5 ml Sputum mit 2 ml TRIS-Imidazol-Puffer; from tissue; host or cells: human sputum
Method in brief: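 Sputum mixed with TRIS-imidazole buffer (ionic strength 1.0), preincubated 5 min at 37°C and centrifuged; supernatant incubated with aqueous substrate solution (2 x 10^-3 M, stock). p-Nitroaniline release followed continuously at 405 nm for 5-10 min; activity expressed as mU per ml sputum from ΔOD/min.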

Humanplasmin = target: T4, Humanplasmin (Homo sapiens, UniProt P00747); experiment: Cleavage of chromogenic substrate by human plasmin; settings: 1 CU-Einheit human plasmin, per min; Substratkonzentration 2 x 10^-4 molar
T4 construct: da bei der Aktivierung aus 1 Molekül Plasminogen 1 Molekül Plasmin entsteht
T4 sequence (P00747 581-810 limits assumed): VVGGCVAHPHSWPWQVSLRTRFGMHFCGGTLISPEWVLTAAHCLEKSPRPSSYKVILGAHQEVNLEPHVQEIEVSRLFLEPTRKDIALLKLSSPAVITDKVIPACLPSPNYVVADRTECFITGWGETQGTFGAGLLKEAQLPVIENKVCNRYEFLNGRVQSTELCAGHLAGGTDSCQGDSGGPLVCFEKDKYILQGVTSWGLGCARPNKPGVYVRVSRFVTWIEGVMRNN
T4 sequence (P00747 97-580 partner limits assumed): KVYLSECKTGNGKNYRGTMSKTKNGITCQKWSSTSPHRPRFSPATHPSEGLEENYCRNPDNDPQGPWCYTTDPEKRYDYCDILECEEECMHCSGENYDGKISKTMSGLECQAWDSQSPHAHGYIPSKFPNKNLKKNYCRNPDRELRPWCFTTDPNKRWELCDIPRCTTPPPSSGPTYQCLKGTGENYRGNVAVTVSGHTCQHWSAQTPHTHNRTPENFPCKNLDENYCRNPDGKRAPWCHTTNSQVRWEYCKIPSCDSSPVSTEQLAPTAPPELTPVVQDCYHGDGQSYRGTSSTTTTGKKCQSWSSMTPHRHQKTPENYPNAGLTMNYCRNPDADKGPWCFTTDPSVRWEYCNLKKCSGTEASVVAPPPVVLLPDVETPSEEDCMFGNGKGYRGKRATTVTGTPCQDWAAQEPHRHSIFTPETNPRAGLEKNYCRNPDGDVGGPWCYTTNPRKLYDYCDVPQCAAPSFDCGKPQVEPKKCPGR

T2 sequence (P06870 25-262): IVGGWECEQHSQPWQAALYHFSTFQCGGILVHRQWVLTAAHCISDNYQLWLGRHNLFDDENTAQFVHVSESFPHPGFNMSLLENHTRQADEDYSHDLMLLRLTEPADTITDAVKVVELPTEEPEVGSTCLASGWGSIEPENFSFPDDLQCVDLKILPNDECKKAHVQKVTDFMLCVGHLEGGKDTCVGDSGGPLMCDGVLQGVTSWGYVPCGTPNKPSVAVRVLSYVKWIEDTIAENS
T3 sequence (P06870 25-262): as above

SMILES	Menge des durch 1 NIH-Einheit Thrombin pro Min. freigesetzten Spaltproduktes R-NH2 in Nanomol (Humanthrombin) (Humanthrombin)	Menge des durch 1 ml Humanurin pro Min. freigesetzten Spaltproduktes R-NH2 in Nanomol (Urinkallikrein) (Urinkallikrein)	Menge des durch 1 ml Humansputum pro Min. freigesetzten Spaltproduktes R-NH2 in Nanomol (Submandibularis-Kallikrein) [1]	Menge des durch 1 CU-Einheit Humanplasmin pro Min. freigesetzten Spaltproduktes R-NH2 in Nanomol (Humanplasmin) (Humanplasmin) [Nanomol]
C[C@@H](N)C(=O)N[C@H](C(=O)N[C@@H](CCCNC(=N)N)C(=O)Nc1ccc([N+](=O)[O-])cc1)c1ccccc1 [Beispiel 55, 2HBr.H-D-Ala-Ph'Gly-Arg-pNA] (H-[dA]-[Phg]-Arg-pNA)	4,2 Nanomol	0,42 Nanomol	23,5 Nanomol	141
N=C(N)NCCC[C@H](NC(=O)[C@@H](NC(=O)[C@H](N)CC1CCCCC1)c1ccccc1)C(=O)Nc1ccc([N+](=O)[O-])cc1 [Beispiel 56, 2HBr.H-D-CHA-Ph'Gly-Arg-pNA] (H-[dCha]-[Phg]-Arg-pNA)	120,2 Nanomol	0,64 Nanomol	29,4 Nanomol	559
N=C(N)NCCC[C@H](NC(=O)[C@@H](NC(=O)[C@H](N)CC1CCC(O)CC1)c1ccccc1)C(=O)Nc1ccc([N+](=O)[O-])cc1 (stereo partly drawn) [Beispiel 57, 2HBr.H-D-CHT-Ph'Gly-Arg-pNA]	112,1 Nanomol	0,45 Nanomol	31,1 Nanomol	591
N=C(N)NCCC[C@H](NC(=O)[C@@H](NC(=O)[C@H](N)C1CCCCC1)c1ccccc1)C(=O)Nc1ccc([N+](=O)[O-])cc1 [Beispiel 58, 2HBr.H-D-CHG-Ph'Gly-Arg-pNA] (H-[dChg]-[Phg]-Arg-pNA)	63,7 Nanomol	0,38 Nanomol	22,1 Nanomol	446
N=C(N)NCCC[C@H](NC(=O)[C@@H](NC(=O)[C@H](N)C1CCCCC1)C1CCCCC1)C(=O)Nc1ccc([N+](=O)[O-])cc1 [Beispiel 59, 2HBr.H-D-CHG-CHG-Arg-pNA] (H-[dChg]-[Chg]-Arg-pNA)	7,5 Nanomol	0,33 Nanomol	5,9 Nanomol	101
N=C(N)NCCC[C@H](NC(=O)[C@@H](NC(=O)[C@H]1CCCCN1)C1CCCCC1)C(=O)Nc1ccc([N+](=O)[O-])cc1 [Beispiel 60, 2HBr.H-D-Pip-CHG-Arg-pNA] (H-[dPip]-[Chg]-Arg-pNA)	1,3 Nanomol	0 Nanomol	1,4 Nanomol	10
N=C(N)NCCC[C@H](NC(=O)[C@@H](NC(=O)[C@H](N)Cc1ccccc1)C1CCCCC1)C(=O)Nc1ccc([N+](=O)[O-])cc1 [Beispiel 61, 2HBr.H-D-Phe-CHG-Arg-pNA] (H-[dF]-[Chg]-Arg-pNA)	3,7 Nanomol	0,33 Nanomol	4,9 Nanomol	60
N=C(N)NCCC[C@H](NC(=O)[C@@H](NC(=O)[C@H](N)c1ccccc1)C1CCCCC1)C(=O)Nc1ccc([N+](=O)[O-])cc1 [Beispiel 62, 2HBr.H-D-Ph'Gly-CHG-Arg-pNA] (H-[dPhg]-[Chg]-Arg-pNA)	2,4 Nanomol	0,25 Nanomol	7,2 Nanomol	26
N=C(N)NCCC[C@H](NC(=O)[C@H](Cc1ccccc1)NC(=O)[C@H](N)c1ccccc1)C(=O)Nc1ccc([N+](=O)[O-])cc1 [Beispiel 63, 2HBr.H-D-Ph'Gly-Phe-Arg-pNA] (H-[dPhg]-Phe-Arg-pNA)	2,4 Nanomol	0,42 Nanomol	7,0 Nanomol	841
N=C(N)NCCC[C@H](NC(=O)[C@H](Cc1ccccc1)NC(=O)[C@H](N)CC1CCCCC1)C(=O)Nc1ccc([N+](=O)[O-])cc1 [Beispiel 64, 2HBr.H-D-CHA-Phe-Arg-pNA] (H-[dCha]-Phe-Arg-pNA)	25,8 Nanomol	0,5 Nanomol	9,7 Nanomol	1261
N=C(N)NCCC[C@H](NC(=O)[C@@H]1CCCCN1C(=O)[C@H](N)C1CCCCC1)C(=O)Nc1ccc([N+](=O)[O-])cc1 [Beispiel 65, 2HBr.H-D-CHG-Pip-Arg-pNA] (H-[dChg]-[Pip]-Arg-pNA)	142,5 Nanomol	1,92 Nanomol	14,2 Nanomol	259
N=C(N)NCCC[C@H](NC(=O)[C@@H]1CCCCN1C(=O)[C@H](N)CC1CCCCC1)C(=O)Nc1ccc([N+](=O)[O-])cc1 [Beispiel 66, 2HBr.H-D-CHA-Pip-Arg-pNA] (H-[dCha]-[Pip]-Arg-pNA)	114,2 Nanomol	0,53 Nanomol	9,8 Nanomol	228
CCCC[C@H](NC(=O)[C@H](N)C1CCCCC1)C(=O)N[C@@H](CCCNC(=N)N)C(=O)Nc1ccc([N+](=O)[O-])cc1 [Beispiel 67, 2HBr.H-D-CHG-Nleu-Arg-pNA] (H-[dChg]-[Nle]-Arg-pNA)	41,0 Nanomol	0,53 Nanomol	13,5 Nanomol	739
CCCC[C@H](NC(=O)[C@H](N)CC1CCCCC1)C(=O)N[C@@H](CCCNC(=N)N)C(=O)Nc1ccc([N+](=O)[O-])cc1 [Beispiel 68, 2HBr.H-D-CHA-Nleu-Arg-pNA] (H-[dCha]-[Nle]-Arg-pNA)	77,6 Nanomol	0,45 Nanomol	15,0 Nanomol	899
CCC[C@H](NC(=O)[C@H](N)CC1CCCCC1)C(=O)N[C@@H](CCCNC(=N)N)C(=O)Nc1ccc([N+](=O)[O-])cc1 [Beispiel 69, 2HBr.H-D-CHA-Nval-Arg-pNA] (H-[dCha]-[Nva]-Arg-pNA)	97,1 Nanomol	0,35 Nanomol	14,2 Nanomol	574
